How the values were obtained:
full length HaSCP-2 = full length HaSCP-2 (Helicoverpa armigera, UniProt K7NSY9); assay: NBD-cholesterol binding assay, full length (deduced) HaSCP-2; details: NBD-cholesterol 0.25 μM, protein 25 nM to 15 μM, one site binding non-linear regression, R^2 = 0.99
Experimental: (§1) NBD-cholesterol binding assays were performed to investigate the biological function of HaSCP-2 in this study. Both the recombinant full length and trHaSCP-2 were examined for NBD-cholesterol binding (Kd). Glutathione S-transferase (GST) was used as a negative control as before. The final concentration of NBD-cholesterol was kept constant at 0.25 μM and the concentration of full length or truncated HaSCP-2 was tested in a range from 25 nM to 15 μM. The increasing concentration of full length or truncated HaSCP-2 led to the increase in the fluorescence emission value of NBD-cholesterol. […] The binding curves were analyzed by using the one site binding non-linear regression model adopted in the similar studies. […] It is quite likely that the N-terminal and C-terminal residues that were deleted may not be necessary for the ligand binding activity of HaSCP-2, as shown that no significant differences in binding affinity between the truncated HaSCP-2 and full length HaSCP-2.
(§2) HaSCP-2 binding activity to cholesterol was determined by using NBD-cholesterol binding assays. […] Then, the samples were applied to measure the fluorescence signals using a fluorescence microplate reader (GeminiXPS, Molecular Devices). Fluorescence was excited at 485 nm and the emission was measured at 530 nm. […]

HaSCP-2 F53W = HaSCP-2 F53W (Helicoverpa armigera, UniProt K7NSY9, F443W); format: binding; details: mutant F53W; P vs WT 0.026
Source text: (§3) In order to further confirm the key residues of HaSCP-2 that are involved in the ligand binding, based on the HaSCP-2 structure and docking simulation results we selected several predicted amino acid residues as shown in Table 3 (cholesterol and β-sitosterol) to perform single site mutation experiments to investigate the mechanism of ligand binding in HaSCP-2.
(§4) Single site amino acid mutations in the pGEX-KG/trHaSCP-2 were introduced using the QuikChange II Site-Directed Mutagenesis kit (Stratagene, La Jolla, CA). The Y51, F53, F89, I91, F110, I117 and Q131 sites of HaSCP-2 were selected to perform mutation.
(§5) HaSCP-2 binding activity to cholesterol was determined by using NBD-cholesterol binding assays. In truncation experiments, deduced HaSCP-2 and truncated HaSCP-2 were used for NBD-cholesterol binding assay; while as in mutation experiment, truncated HaSCP-2 (defined as wild type HaSCP-2) and mutated HaSCP-2 were assayed. HaSCP-2 was diluted in 10 mM KHPO4 buffer (pH 7.4) to a serial of varied concentrations […], respectively.

HaSCP-2 Y51A = HaSCP-2 Y51A (Helicoverpa armigera, UniProt K7NSY9, Y441A); format: binding; details: mutant Y51A; P vs WT 0.023
Source text: as §3, §4, §5

HaSCP-2 F89A = HaSCP-2 F89A (Helicoverpa armigera, UniProt K7NSY9, F479A); format: binding; details: mutant F89A; P vs WT 0.038
Source text: as §3, §4, §5

HaSCP-2 F53A = HaSCP-2 F53A (Helicoverpa armigera, UniProt K7NSY9, F443A); format: binding; details: mutant F53A; P vs WT 0.031
Source text: as §3, §4, §5

HaSCP-2 Q131A = HaSCP-2 Q131A (Helicoverpa armigera, UniProt K7NSY9, Q521A); format: binding; details: mutant Q131A; P vs WT 0.034
Source text: as §3, §4, §5

HaSCP-2 I117M = HaSCP-2 I117M (Helicoverpa armigera, UniProt K7NSY9, I507M); format: binding; details: mutant I117M; P vs WT 0.043
Source text: as §3, §4, §5

HaSCP-2 F110W = HaSCP-2 F110W (Helicoverpa armigera, UniProt K7NSY9, F500W); format: binding; details: mutant F110W; P vs WT 0.019
Source text: as §3, §4, §5

[1] = target: truncated HaSCP-2 (trHaSCP-2) (Helicoverpa armigera, UniProt K7NSY9); assay: NBD-cholesterol binding assay, truncated (wild type) HaSCP-2; details: NBD-cholesterol 0.25 μM, protein 25 nM to 15 μM, one site binding non-linear regression, R^2 = 0.99
Experimental: as §1, §2

[2] = test system: Helicoverpa armigera larvae; assay: Cholesterol levels in fat body of larvae treated with SCP-2 inhibitors; format: in vivo; details: fat body dissected at 5th instar
Experimental: To investigate the effects of SCPI suppression on cholesterol absorption and accumulation in the fat body, in vivo experiments were conducted. The inhibitory effects of SCPIs on cholesterol uptake were tested at the early stages of 3rd and 4th instar larvae. H. armigera larvae were treated with SCPI-1 and mangostin. Because the fat body of insects is the main tissues of cholesterol storage, the fat bodies of the treated larvae were dissected at 5th instar and the concentration of cholesterol in the fat body was measured. […] Similarly, for the mangostin treatment group, there was a 2-fold decrease in the cholesterol levels (p = 0.05) (Fig. 9B 3rd) when the treatment started at 3rd instar stadium. […]
Figure 9 The levels of cholesterol in Helicoverpa armigera larvae treated by SCP-2 inhibitors. The cholesterol levels in the fat body of Helicoverpa armigera larvae which were treated with two inhibitors (AeSCPI-1 and mangostin) were determined. […] The concentration of cholesterol and total protein from each sample were measured. […] Larvae were treated and samples were measured in the same way as AeSCPI-1. […]
The H.armigera larvae were reared according to previous methods. […] Because the fat body of insects is the main tissue of cholesterol storage, the fat bodies of the treated larvae were dissected at 5th instar and the concentration of cholesterol in the fat body was measured. […]

HaSCP-2 = HaSCP-2 (Helicoverpa armigera, UniProt K7NSY9); assay: biochemical
HaSCP-2, sequence (K7NSY9 entry or part of it): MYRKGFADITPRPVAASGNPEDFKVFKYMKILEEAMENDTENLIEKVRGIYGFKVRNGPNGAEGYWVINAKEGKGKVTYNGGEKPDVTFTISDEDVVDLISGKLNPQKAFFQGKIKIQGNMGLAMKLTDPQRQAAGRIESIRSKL
Experimental: In the presence of each SCPI with an increasing concentrations (0–10 μM), HaSCP-2 (with final concentration of 5 μM) was incubated with NBD-cholesterol (with final concentration of 1.25 μM) in 100 μl of 10 mM KHPO4 buffer (pH 7.5) at 25 °C. Mixture samples were added into 96-well plates and fluorescence intensity was measured on the microplate reader (GeminiXPS, Molecular Devices). Excitation was at 485 nm and emission was measured at 530 nm. The results are analyzed from three repeated experiments with standard deviations. All the data were processed using a single site competition, non-linear regression model in the GraphPad PRISM software version 4.0 (GraphPad). The 50% effective concentration (EC50) was obtained using the equation 2:

truncated HaSCP-2 (trHaSCP-2), sequence (K7NSY9 entry or part of it): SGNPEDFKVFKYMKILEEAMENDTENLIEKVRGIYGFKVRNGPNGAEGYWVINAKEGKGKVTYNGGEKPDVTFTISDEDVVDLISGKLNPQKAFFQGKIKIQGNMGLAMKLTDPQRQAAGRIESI
HaSCP-2 Y51A, sequence (K7NSY9 entry or part of it Y441A): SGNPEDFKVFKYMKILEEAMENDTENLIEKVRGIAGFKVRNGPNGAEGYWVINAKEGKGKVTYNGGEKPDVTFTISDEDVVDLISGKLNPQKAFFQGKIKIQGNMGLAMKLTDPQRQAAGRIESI
HaSCP-2 F110W, sequence (K7NSY9 entry or part of it F500W): as the sequence (K7NSY9 entry or part of it Y441A) above, with A35Y, F94W counted along it
HaSCP-2 I117M, sequence (K7NSY9 entry or part of it I507M): as the sequence (K7NSY9 entry or part of it Y441A) above, with A35Y, I101M counted along it
HaSCP-2 F53A, sequence (K7NSY9 entry or part of it F443A): as the sequence (K7NSY9 entry or part of it Y441A) above, with A35Y, F37A counted along it
HaSCP-2 F53W, sequence (K7NSY9 entry or part of it F443W): as the sequence (K7NSY9 entry or part of it Y441A) above, with A35Y, F37W counted along it
full length HaSCP-2, sequence (K7NSY9 entry or part of it): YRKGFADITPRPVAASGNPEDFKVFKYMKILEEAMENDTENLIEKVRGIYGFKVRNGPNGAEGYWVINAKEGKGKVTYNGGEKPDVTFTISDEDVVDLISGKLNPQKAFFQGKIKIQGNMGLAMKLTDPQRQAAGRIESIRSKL
HaSCP-2 Q131A, sequence (K7NSY9 entry or part of it Q521A): as the sequence (K7NSY9 entry or part of it Y441A) above, with A35Y, Q115A counted along it
HaSCP-2 F89A, sequence (K7NSY9 entry or part of it F479A): as the sequence (K7NSY9 entry or part of it Y441A) above, with A35Y, F73A counted along it

SMILES | Kd (full length HaSCP-2) [nM] | Kd (HaSCP-2 F53W) [nM] | Kd (HaSCP-2 Y51A) [nM] | Kd (HaSCP-2 F89A) [nM] | Kd (HaSCP-2 F53A) [nM] | Kd (HaSCP-2 Q131A) [nM] | Kd (HaSCP-2 I117M) [nM] | Kd (HaSCP-2 F110W) [nM] | Kd [1] [nM] | cholesterol levels in the fat body vs control group ([2]; larvae treated at 3rd instar stage via diet, p = 0.023) | EC50 (HaSCP-2) [nM] | decrease in the cholesterol levels in the fat body ([2]; treatment started at 3rd instar stadium via diet, p = 0.05) [fold]
C[C@H](CNc1ccc([N+](=O)[O-])c2nonc12)[C@H]1CC[C@H]2[C@@H]3CC=C4C[C@@H](O)CC[C@]4(C)[C@H]3CC[C@]12C [NBD-cholesterol] | 2800 | 3410 | 2650 | 3270 | 3070 | 3770 | 1800 | 3240 | 2450 | – | – | –
Br.CC(=O)Nc1ccc(Nc2nc(-c3ccc(Cl)c(Cl)c3)cs2)cc1 [AeSCPI-1, N-(4-{[4-(3,4-dichlorophenyl)-1,3-thiazol-2-yl]amino}phenyl) acetamide hydrobromide] | – | – | – | – | – | – | – | – | – | significantly lower | 760 | –
COc1c(O)cc2oc3cc(O)c(CC=C(C)C)c(O)c3c(=O)c2c1CC=C(C)C [α-mangostin, 1,3,6-trihydroxy-7-methoxy-2,8-bis(3-methylbut-2-enyl)-9H-xanthen-9-one] | – | – | – | – | – | – | – | – | – | – | 730 | 2

Source: paper PMC4674756, “NMR structure and function of Helicoverpa armigera sterol carrier protein-2, an important insecticidal target from the cotton bollworm” (Scientific Reports, 2015)
